Reference: patent US12258327B2, “5-membered heteroaryl-containing aminopyridine compounds as EGFR inhibitors” (YUHAN CORPORATION, priority 2021, dated 2025)
Where two headings read alike, the source gives them in different places.

Columns and labels:
[1] = biological target: EGFR del19/T790M/C797S (Homo sapiens, UniProt P00533, C797S/DEL746-750/T790M); assay: Biochemical EGFR kinase assay (Lance Ultra TR-FRET), triple mutant del19/T790M/C797S
Procedure, shortened: (§1)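 Enzyme reactions lasted 1 hour at room temperature with test compounds between 0.003 and 10 μM, followed by 10 mM EDTA quench.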

[2] = biological target: EGFR L858R/T790M/C797S (Homo sapiens, UniProt P00533, C797S/L858R/T790M); assay: Biochemical EGFR kinase assay (Lance Ultra TR-FRET), triple mutant L858R/T790M/C797S
Procedure, shortened: as §1

[3] = biological target: EGFR L858R/C797S (Homo sapiens, UniProt P00533, C797S/L858R); assay: Biochemical EGFR kinase assay (Lance Ultra TR-FRET), double mutant L858R/C797S
Procedure, shortened: as §1

[4] = biological target: EGFR wildtype (WT) (Homo sapiens, UniProt P00533); assay: Biochemical EGFR kinase assay (Lance Ultra TR-FRET), wildtype
Procedure, shortened: as §1

[5] = biological target: EGFR del19/C797S (Homo sapiens, UniProt P00533, C797S/DEL746-750); assay: Biochemical EGFR kinase assay (Lance Ultra TR-FRET), double mutant del19/C797S
Procedure, shortened: as §1

[6] = Km ATP, read-out: IC50 del19/T790M/C797S, Km ATP
[7] = Km ATP, read-out: IC50 L858R/T790M/C797S, Km ATP
[8] = Km ATP, read-out: IC50 L858R/C797S, Km ATP
[9] = Km ATP, read-out: IC50 WT, Km ATP
[10] = Km ATP, read-out: IC50 del19/C797S, Km ATP
[11] = IC50 del19/T790M/C797S (nM) 100 μM ATP, 100 μM ATP
[12] = Km ATP, read-out: IC50 del19/T790M/C797S (nM) Km ATP
[13] = IC50 L858R/T790M/C797S (nM) 100 μM ATP, 100 μM ATP
[14] = Km ATP, read-out: IC50 L858R/T790M/C797S (nM) Km ATP
[15] = IC50 L858R/C797S (nM) 100 μM ATP, 100 μM ATP
[16] = Km ATP, read-out: IC50 L858R/C797S (nM) Km ATP
[17] = IC50 WT (nM) 100 μM ATP, 100 μM ATP
[18] = IC50 del19/C797S (nM) 100 μM ATP, 100 μM ATP
[19] = Km ATP, read-out: IC50 del19/C797S (nM) Km ATP
[20] = Km ATP, read-out: IC50 WT (nM) Km ATP

Sequence of EGFR del19/T790M/C797S (P00533 with tags, fused parts or gaps DEL746-750/T790M/C797S): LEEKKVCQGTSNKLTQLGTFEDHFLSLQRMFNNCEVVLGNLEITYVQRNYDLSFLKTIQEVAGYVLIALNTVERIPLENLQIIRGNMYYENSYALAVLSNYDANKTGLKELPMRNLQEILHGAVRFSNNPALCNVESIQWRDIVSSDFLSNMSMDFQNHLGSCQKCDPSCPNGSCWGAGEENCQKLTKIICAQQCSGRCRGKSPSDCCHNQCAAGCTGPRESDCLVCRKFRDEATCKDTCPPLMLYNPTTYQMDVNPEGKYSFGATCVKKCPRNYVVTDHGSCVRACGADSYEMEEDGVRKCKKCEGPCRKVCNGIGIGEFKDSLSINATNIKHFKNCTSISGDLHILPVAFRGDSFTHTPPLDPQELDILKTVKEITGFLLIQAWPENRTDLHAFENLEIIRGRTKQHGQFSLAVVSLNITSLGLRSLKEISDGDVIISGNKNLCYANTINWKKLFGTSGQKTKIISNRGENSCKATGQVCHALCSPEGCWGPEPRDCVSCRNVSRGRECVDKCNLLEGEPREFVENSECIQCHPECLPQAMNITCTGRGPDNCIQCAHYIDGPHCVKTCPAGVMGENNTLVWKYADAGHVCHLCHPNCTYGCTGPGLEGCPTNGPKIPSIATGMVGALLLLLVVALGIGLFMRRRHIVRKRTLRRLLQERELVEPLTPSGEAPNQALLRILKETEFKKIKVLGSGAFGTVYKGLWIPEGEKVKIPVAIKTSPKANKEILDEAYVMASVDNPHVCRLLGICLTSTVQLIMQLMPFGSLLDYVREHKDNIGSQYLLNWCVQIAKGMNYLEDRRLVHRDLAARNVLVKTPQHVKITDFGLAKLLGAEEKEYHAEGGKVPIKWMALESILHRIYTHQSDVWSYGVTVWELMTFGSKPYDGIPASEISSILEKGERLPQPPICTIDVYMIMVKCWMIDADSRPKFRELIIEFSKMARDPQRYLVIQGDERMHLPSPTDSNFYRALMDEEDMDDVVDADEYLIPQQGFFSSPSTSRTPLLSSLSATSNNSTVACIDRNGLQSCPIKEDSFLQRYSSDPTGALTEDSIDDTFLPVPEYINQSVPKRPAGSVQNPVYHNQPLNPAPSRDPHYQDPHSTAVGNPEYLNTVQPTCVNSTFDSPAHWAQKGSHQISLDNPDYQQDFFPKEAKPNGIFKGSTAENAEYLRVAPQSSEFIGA
Sequence of EGFR L858R/T790M/C797S (P00533 25-1210 T790M/C797S/L858R): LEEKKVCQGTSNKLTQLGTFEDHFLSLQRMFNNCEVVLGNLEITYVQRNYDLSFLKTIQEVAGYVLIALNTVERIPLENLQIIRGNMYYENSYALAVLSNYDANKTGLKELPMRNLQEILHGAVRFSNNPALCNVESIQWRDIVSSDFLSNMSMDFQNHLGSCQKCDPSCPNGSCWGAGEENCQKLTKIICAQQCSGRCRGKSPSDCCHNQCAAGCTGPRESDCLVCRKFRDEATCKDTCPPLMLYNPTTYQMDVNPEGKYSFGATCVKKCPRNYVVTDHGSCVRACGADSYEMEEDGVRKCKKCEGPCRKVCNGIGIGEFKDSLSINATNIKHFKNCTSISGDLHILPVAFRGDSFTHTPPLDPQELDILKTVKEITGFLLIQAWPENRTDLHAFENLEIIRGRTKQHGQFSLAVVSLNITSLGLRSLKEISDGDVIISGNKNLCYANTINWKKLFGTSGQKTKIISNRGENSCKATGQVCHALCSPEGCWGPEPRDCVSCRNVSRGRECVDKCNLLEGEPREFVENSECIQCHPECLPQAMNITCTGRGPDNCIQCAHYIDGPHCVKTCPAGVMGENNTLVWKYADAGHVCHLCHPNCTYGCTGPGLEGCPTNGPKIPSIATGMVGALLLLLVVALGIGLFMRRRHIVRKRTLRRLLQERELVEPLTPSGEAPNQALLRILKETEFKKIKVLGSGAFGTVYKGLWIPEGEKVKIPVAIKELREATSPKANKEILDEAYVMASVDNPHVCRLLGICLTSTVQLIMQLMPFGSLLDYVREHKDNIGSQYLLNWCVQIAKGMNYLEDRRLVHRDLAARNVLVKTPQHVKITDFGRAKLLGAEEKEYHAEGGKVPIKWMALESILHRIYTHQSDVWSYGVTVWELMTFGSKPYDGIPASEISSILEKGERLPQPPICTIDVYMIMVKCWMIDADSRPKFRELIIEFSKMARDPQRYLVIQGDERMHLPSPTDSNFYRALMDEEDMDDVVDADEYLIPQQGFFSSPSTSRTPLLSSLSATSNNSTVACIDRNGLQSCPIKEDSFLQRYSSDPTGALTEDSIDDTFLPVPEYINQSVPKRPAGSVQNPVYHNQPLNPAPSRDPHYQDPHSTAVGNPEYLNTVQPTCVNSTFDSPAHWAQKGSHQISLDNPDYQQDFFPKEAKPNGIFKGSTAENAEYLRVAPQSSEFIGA
Sequence of EGFR wildtype (WT) (P00533 25-1210): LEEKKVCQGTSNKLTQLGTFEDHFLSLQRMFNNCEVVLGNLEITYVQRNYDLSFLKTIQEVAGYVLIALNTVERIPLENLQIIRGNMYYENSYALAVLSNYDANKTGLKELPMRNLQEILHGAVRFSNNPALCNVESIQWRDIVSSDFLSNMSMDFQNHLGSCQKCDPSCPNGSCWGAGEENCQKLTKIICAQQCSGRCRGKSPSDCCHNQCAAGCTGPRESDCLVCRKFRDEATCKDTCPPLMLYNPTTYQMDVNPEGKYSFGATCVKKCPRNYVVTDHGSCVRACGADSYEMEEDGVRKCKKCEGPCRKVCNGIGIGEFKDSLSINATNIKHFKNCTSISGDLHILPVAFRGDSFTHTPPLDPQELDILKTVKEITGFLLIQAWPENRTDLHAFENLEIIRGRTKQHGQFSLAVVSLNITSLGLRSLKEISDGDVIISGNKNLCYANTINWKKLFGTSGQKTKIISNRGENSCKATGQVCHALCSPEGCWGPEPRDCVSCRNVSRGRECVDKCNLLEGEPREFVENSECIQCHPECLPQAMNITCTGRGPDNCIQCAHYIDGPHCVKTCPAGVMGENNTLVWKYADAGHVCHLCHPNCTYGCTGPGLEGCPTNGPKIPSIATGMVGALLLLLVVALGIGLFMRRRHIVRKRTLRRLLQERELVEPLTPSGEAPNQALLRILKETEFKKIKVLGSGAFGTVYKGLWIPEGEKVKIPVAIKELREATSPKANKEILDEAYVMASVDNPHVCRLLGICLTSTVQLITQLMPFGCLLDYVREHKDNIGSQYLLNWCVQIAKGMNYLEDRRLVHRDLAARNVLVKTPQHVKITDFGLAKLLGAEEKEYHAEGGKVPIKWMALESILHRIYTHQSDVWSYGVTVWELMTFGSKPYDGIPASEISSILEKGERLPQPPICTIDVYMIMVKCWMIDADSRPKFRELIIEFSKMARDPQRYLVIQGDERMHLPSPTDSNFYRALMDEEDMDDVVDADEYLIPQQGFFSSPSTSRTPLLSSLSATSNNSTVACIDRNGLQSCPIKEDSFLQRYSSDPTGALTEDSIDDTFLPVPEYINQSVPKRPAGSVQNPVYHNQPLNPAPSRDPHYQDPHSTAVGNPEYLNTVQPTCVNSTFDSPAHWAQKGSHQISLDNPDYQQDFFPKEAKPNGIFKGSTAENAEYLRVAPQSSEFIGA
Sequence of EGFR L858R/C797S (P00533 25-1210 C797S/L858R): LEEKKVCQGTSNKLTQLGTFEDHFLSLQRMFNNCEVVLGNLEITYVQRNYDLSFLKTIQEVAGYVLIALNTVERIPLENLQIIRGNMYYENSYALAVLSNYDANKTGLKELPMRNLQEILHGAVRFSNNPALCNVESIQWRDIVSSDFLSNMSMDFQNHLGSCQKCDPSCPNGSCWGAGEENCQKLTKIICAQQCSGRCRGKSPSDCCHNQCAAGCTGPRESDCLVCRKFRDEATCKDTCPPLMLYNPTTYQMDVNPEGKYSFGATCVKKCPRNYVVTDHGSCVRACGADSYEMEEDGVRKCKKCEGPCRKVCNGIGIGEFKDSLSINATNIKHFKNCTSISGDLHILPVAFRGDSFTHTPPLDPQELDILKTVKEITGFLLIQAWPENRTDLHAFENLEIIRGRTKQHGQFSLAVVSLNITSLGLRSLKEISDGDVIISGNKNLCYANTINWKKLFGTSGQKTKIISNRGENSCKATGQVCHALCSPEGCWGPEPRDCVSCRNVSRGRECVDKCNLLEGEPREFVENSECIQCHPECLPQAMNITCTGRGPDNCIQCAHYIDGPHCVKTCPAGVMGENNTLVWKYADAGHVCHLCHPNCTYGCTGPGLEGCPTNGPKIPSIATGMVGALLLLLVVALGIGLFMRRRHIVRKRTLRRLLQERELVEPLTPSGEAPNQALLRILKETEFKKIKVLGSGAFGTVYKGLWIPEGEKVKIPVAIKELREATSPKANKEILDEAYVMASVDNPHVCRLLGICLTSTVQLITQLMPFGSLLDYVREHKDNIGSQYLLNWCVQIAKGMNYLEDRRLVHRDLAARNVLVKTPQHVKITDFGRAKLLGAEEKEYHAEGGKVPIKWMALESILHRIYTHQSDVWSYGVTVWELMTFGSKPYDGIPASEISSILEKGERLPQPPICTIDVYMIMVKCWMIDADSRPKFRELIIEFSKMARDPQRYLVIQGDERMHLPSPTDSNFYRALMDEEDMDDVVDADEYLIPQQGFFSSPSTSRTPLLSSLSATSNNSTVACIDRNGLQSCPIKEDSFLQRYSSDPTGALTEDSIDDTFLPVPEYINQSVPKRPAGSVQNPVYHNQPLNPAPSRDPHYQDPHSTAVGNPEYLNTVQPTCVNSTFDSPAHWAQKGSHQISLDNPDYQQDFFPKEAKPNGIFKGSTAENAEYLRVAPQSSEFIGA

SMILES | IC50 [1, 11] [nM] | IC50 [1, 12] [nM] | IC50 [2, 13] [nM] | IC50 [2, 14] [nM] | IC50 [3, 15] [nM] | IC50 [3, 16] [nM] | IC50 [4, 17] [nM] | IC50 [5, 18] [nM] | IC50 [5, 19] [nM] | IC50 [4, 20] [nM] | other results
CC1(O)CCC(Nc2cc(Nc3ccnc(N4CC(O)C(F)(F)C4)n3)ncc2-c2ccn(C(F)F)n2)CC1 (stereo not drawn) [Example 349, 1-(4-((5-(1-(Difluoromethyl)-1H-pyrazol-3-yl)-4-(((1s,4s)-4-hydroxy-4-methylcyclohexyl)amino)pyridin-2-yl)amino)pyrimidin-2-yl)-4,4-difluoropyrrolidin-3-ol] | – | – | – | – | – | – | – | – | – | – | IC50 ([1]; IC50 del19/T790M/C797S, 100 μM ATP): 1 nM; IC50 [1, 6]: 2.4 nM; IC50 ([2]; IC50 L858R/T790M/C797S, 100 μM ATP): 2.8 nM; IC50 [2, 7]: 0.3 nM; IC50 ([3]; IC50 L858R/C797S, 100 μM ATP): 304 nM; IC50 [3, 8]: 77.2 nM; IC50 ([4]; IC50 WT, 100 μM ATP): > 10000 nM; IC50 [4, 9]: 189 nM; IC50 ([5]; IC50 del19/C797S, 100 μM ATP): 276 nM; IC50 [5, 10]: 53.7 nM
C[C@]1(O)CC[C@@H](Nc2cc(Nc3ccnc(-c4cnn(S(=O)(=O)C5CC5)c4)n3)ncc2-c2ccn(C3COC3)n2)CC1 [Example 292, (1s,4s)-4-((2-((2-(1-(Cyclopropylsulfonyl)-1H-pyrazol-4-yl)pyrimidin-4-yl)amino)-5-(1-(oxetan-3-yl)-1H-pyrazol-3-yl)pyridin-4-yl)amino)-1-methylcyclohexan-1-ol] | 0.2 | 0.5 | 0.2 | 0.1 | 6.6 | 0.1 | 6970 | 0.8 | 0.4 | – | –
C[C@]1(O)CC[C@@H](Nc2cc(Nc3ccnc(-c4cnn(CC(F)F)c4)n3)ncc2-n2ccc(C(F)F)n2)CC1 [Example 177, (1s,4s)-4-((2-((2-(1-(2,2-Difluoroethyl)-1H-pyrazol-4-yl)pyrimidin-4-yl)amino)-5-(3-(difluoromethyl)-1H-pyrazol-1-yl)pyridin-4-yl)amino)-1-methylcyclohexan-1-ol] | – | 0.8 | – | 0.8 | – | 36.6 | – | – | 1320 | 4620 | –
O=S(=O)(C1CC1)n1cc(-c2nccc(Nc3cc(NC4CCC(O)C4)c(-c4ccn(C(F)F)n4)cn3)n2)cn1 (stereo not drawn) [Example 15, 3-((2-((2-(1-(Cyclopropylsulfonyl)-1H-pyrazol-4-yl)pyrimidin-4-yl)amino)-5-(1-(difluoromethyl)-1H-pyrazol-3-yl)pyridin-4-yl)amino)cyclopentan-1-ol] | 0.6 | – | 0.9 | – | 9.7 | – | > 10000 | 3.2 | – | – | –
CN(C)S(=O)(=O)n1ccc(-c2nccc(Nc3cc(N[C@H]4CC[C@@](C)(O)CC4)c(-c4ccn(C(F)F)n4)cn3)n2)c1 [Example 109, 3-(4-((5-(1-(Difluoromethyl)-1H-pyrazol-3-yl)-4-(((1s,4s)-4-hydroxy-4-methylcyclohexyl)amino)pyridin-2-yl)amino)pyrimidin-2-yl)-N,N-dimethyl-1H-pyrrole-1-sulfonamide] | – | 9.5 | – | 2.2 | – | 14.5 | – | – | 178 | 538 | –
O=S(=O)(C1CC1)n1cc(-c2nccc(Nc3cc(N[C@H]4CC[C@@H](O)CC4)c(-c4ccn(C(F)F)n4)cn3)n2)cn1 [Example 80, (1s,4s)-4-((2-((2-(1-(Cyclopropylsulfonyl)-1H-pyrazol-4-yl)pyrimidin-4-yl)amino)-5-(1-(difluoromethyl)-1H-pyrazol-3-yl)pyridin-4-yl)amino)cyclohexan-1-ol] | 0.7 | – | 0.8 | – | 1.4 | – | 214 | 1.2 | – | – | –
O=S(=O)(C1CC1)n1cc(-c2nccc(Nc3cc(NN4CCC(O)CC4)c(-c4ccn(C(F)F)n4)cn3)n2)cn1 [Example 153, 1-((2-((2-(1-(Cyclopropylsulfonyl)-1H-pyrazol-4-yl)pyrimidin-4-yl)amino)-5-(1-(difluoromethyl)-1H-pyrazol-3-yl)pyridin-4-yl)amino)piperidin-4-ol] | – | 0.1 | – | 0.1 | – | 0.1 | – | – | 1.3 | 3.9 | –
CN(C)CC[C@H]1CC[C@@H](Nc2cc(Nc3ccnc(-c4cnn(S(=O)(=O)C5CC5)c4)n3)ncc2-c2ccn(CC(F)F)n2)CC1 [Example 251, N^2-(2-(1-(Cyclopropylsulfonyl)-1H-pyrazol-4-yl)pyrimidin-4-yl)-5-(1-(2,2-difluoroethyl)-1H-pyrazol-3-yl)-N^4-((1s,4s)-4-(2-(dimethylamino)ethyl)cyclohexyl)pyridine-2,4-diamine] | – | 0.7 | – | 0.2 | – | 0.1 | – | – | 0.4 | 0.3 | –
O=S(=O)(C1CC1)n1cc(-c2nccc(Nc3cc(NC4CCC(F)(CO)CC4)c(-c4ccn(C(F)F)n4)cn3)n2)cn1 (stereo not drawn) [Example 190, (4-((2-((2-(1-(Cyclopropylsulfonyl)-1H-pyrazol-4-yl)pyrimidin-4-yl)amino)-5-(1-(difluoromethyl)-1H-pyrazol-3-yl)pyridin-4-yl)amino)-1-fluorocyclohexyl)methanol] | 1.2 | 0.9 | 1.8 | 0.6 | 119 | 6.7 | > 10000 | 11.9 | 9.1 | 109 | –
FC(F)Cn1cc(-c2nccc(Nc3cc(N[C@H]4CC[C@@H](F)CC4)c(-c4ccn(CC(F)(F)F)n4)cn3)n2)cn1 [Example 339, N^2-(2-(1-(2,2-Difluoroethyl)-1H-pyrazol-4-yl)pyrimidin-4-yl)-N^4-((1s,4s)-4-fluorocyclohexyl)-5-(1-(2,2,2-trifluoroethyl)-1H-pyrazol-3-yl)pyridine-2,4-diamine] | – | – | – | – | – | – | – | – | – | – | IC50 [1, 6]: 2.9 nM; IC50 [2, 7]: 0.4 nM; IC50 [3, 8]: 113 nM; IC50 [4, 9]: 424 nM; IC50 [5, 10]: 1070 nM
O=S(=O)(C1CC1)n1cc(-c2cc(Nc3ncc(-c4ccn(C(F)F)n4)c(N[C@H]4CC[C@@H](CO)CC4)n3)ccn2)cn1 [Example 364, ((1s,4s)-4-((2-((2-(1-(Cyclopropylsulfonyl)-1H-pyrazol-4-yl)pyridin-4-yl)amino)-5-(1-(difluoromethyl)-1H-pyrazol-3-yl)pyrimidin-4-yl)amino)cyclohexyl)methanol] | – | – | – | – | – | – | – | – | – | – | IC50 [1, 6]: 0.4 nM; IC50 [2, 7]: 0.8 nM; IC50 [3, 8]: 9 nM; IC50 [4, 9]: 55.6 nM; IC50 [5, 10]: 7.9 nM
O=C1NCCCC1Nc1cc(Nc2ccnc(-c3cnn(S(=O)(=O)C4CC4)c3)n2)ncc1-c1ccn(C(F)F)n1 (stereo not drawn) [Example 38, 3-((2-((2-(1-(Cyclopropylsulfonyl)-1H-pyrazol-4-yl)pyrimidin-4-yl)amino)-5-(1-(difluoromethyl)-1H-pyrazol-3-yl)pyridin-4-yl)amino)piperidin-2-one] | 0.5 | 0.5 | 2.5 | 0.3 | 182 | 9.1 | > 10000 | 24.8 | 23.7 | 60.7 | –
CN(CC(F)F)C[C@H]1CC[C@@H](Nc2cc(Nc3ccnc(-c4cnn(S(=O)(=O)C5CC5)c4)n3)ncc2-c2ccn(C(F)F)n2)CC1 [Example 206, N^2-(2-(1-(Cyclopropylsulfonyl)-1H-pyrazol-4-yl)pyrimidin-4-yl)-N^4-((1s,4s)-4-(((2,2-difluoroethyl)(methyl)amino)methyl)cyclohexyl)-5-(1-(difluoromethyl)-1H-pyrazol-3-yl)pyridine-2,4-diamine] | 22.1 | – | 13.8 | – | 206 | – | > 10000 | 26.9 | – | – | –
CN(C)C[C@H]1C[C@H](CNc2cc(Nc3ccnc(-c4cnn(S(=O)(=O)C5CC5)c4)n3)ncc2-c2ccn(CC(F)F)n2)C1 [Example 249, N^2-(2-(1-(Cyclopropylsulfonyl)-1H-pyrazol-4-yl)pyrimidin-4-yl)-5-(1-(2,2-difluoroethyl)-1H-pyrazol-3-yl)-N^4-(((1r,3r)-3-((dimethylamino)methyl)cyclobutyl)methyl)pyridine-2,4-diamine] | – | 0.4 | – | 0.1 | – | 6.1 | – | – | 11.5 | 7.5 | –
O=C1CC[C@]2(CC[C@H](Nc3cc(Nc4ccnc(-c5cnn(S(=O)(=O)C6CC6)c5)n4)ncc3-c3csc(C(F)(F)F)n3)CC2)N1 [Example 52, (5s,8s)-8-((2-((2-(1-(Cyclopropylsulfonyl)-1H-pyrazol-4-yl)pyrimidin-4-yl)amino)-5-(2-(trifluoromethyl)thiazol-4-yl)pyridin-4-yl)amino)-1-azaspiro[4.5]decan-2-one] | 0.6 | 0.6 | 0.6 | 0.4 | 10 | 1.6 | > 10000 | 0.8 | 1.3 | 18 | –
